Patent US20130252950A1, “TARGETING MTOR SUBSTRATES IN TREATING PROLIFERATIVE DISEASES” (President and Fellows of Harvard College, priority 2010, published 2013)

Columns and labels:
[1] = test system: rpS6 phosphorylation in TSC2−/− cells; assay: Immunoblot of rpS6 phosphorylation (S6K activity); type: cell-based, mouse; conditions: serum-starved TSC2−/− cells, 100 nM staurosporine, two hours
Protocol: (§1) FIG. 2. Phosphorylation of Grb10 at S501/S503 is sensitive to rapamycin inhibition. (A) Identification of a doubly-phosphorylated rapamycin-sensitive Grb10 peptide (MNILSS*QS*[…] , SEQ ID NO: 2, * indicates phosphorylation sites) corresponding to S501/S503. (B) Evolutionary conservation of Grb10 S501/S503 among vertebrate species. […] TSC2−/− cells were starved for serum and treated with 20 nM rapamycin for the indicated times. Sequences, from top to bottom: SEQ ID NO: 1723 to SEQ ID NO: 1727, respectively. (D) Phosphorylation of Grb10 at S501/501 is sensitive to amino acids withdrawal. TSC2−/− cells were starved in DMEM overnight and then transferred to D-PBS for the indicated times. (E) Phosphorylation of Grb10 at S501/S503 is not affected by the pan-kinase inhibitor, staurosporine. TSC2−/− cells were starved for serum and treated with either 100 nM staurosporine or Ku-0063794 at the indicated concentrations for two hours. (F) Grb10 phosphorylation is increased upon growth factor stimulation. Wild type (WT) mouse embryonic fibroblasts (MEFs) were starved for serum overnight and then were stimulated with insulin (100 nM) or serum (10%) for 15 min. The cells were preincubated with the indicated compounds for two hours. […] Rapamycin (rapa) was used at 20 nM. (G) Grb10 phosphorylation at S501/S503 is sensitive to various mTOR kinase inhibitors. […]

[2] = test system: Grb10 S501/S503 phosphorylation in TSC2−/− cells; assay: Immunoblot of Grb10 S501/S503 phosphorylation with phospho-specific antibody; type: cell-based, mouse; conditions: serum-starved TSC2−/− cells, two hours; rapamycin 20 nM, staurosporine 100 nM, LY294002 20 μM, BEZ235 500 nM, torin 100 nM, pp 242 1 μM, Ku-0063794 at indicated concentrations
Protocol: FIG. 2. Phosphorylation of Grb10 at S501/S503 is sensitive to rapamycin inhibition. (A) Identification of a doubly-phosphorylated rapamycin-sensitive Grb10 peptide (MNILSS*QS*[…] , SEQ ID NO: 2, * indicates phosphorylation sites) corresponding to S501/S503. (B) Evolutionary conservation of Grb10 S501/S503 among vertebrate species. […] TSC2−/− cells were starved for serum and treated with 20 nM rapamycin for the indicated times. Sequences, from top to bottom: SEQ ID NO: 1723 to SEQ ID NO: 1727, respectively. (D) Phosphorylation of Grb10 at S501/501 is sensitive to amino acids withdrawal. TSC2−/− cells were starved in DMEM overnight and then transferred to D-PBS for the indicated times. (E) Phosphorylation of Grb10 at S501/S503 is not affected by the pan-kinase inhibitor, staurosporine. TSC2−/− cells were starved for serum and treated with either 100 nM staurosporine or Ku-0063794 at the indicated concentrations for two hours. (F) Grb10 phosphorylation is increased upon growth factor stimulation. Wild type (WT) mouse embryonic fibroblasts (MEFs) were starved for serum overnight and then were stimulated with insulin (100 nM) or serum (10%) for 15 min. The cells were preincubated with the indicated compounds for two hours. […] Rapamycin (rapa) was used at 20 nM. (G) Grb10 phosphorylation at S501/S503 is sensitive to various mTOR kinase inhibitors. TSC2−/− cells were serum-starved and treated with the indicated compounds for two hours. The concentrations of the compounds were rapamycin 20 nM, LY (LY294002) 20 μM, BEZ235 (NVP-BEZ235) 500 nM, torin 100 nM, and pp 242 1 μM.
We developed a phosphospecific antibody (FIGS. 9A and 9B) to further characterize these two Grb10 phosphorylation sites. […] The dephosphorylation kinetics correlated well with that of S6K.
We further investigated the effects of growth factor stimulation and rapamycin-mediated inhibition on Grb10 phosphorylation in other cell types. Wild-type MEFs were serum-starved and then stimulated with either insulin or 10% serum, both of which led to a robust increase in Grb10 phosphorylation (FIG. 2F). […] It was previously reported that Grb10 S503 (S476 in human Grb10 isoform 3) was phosphorylated by ERK1/2 in vitro (13).

[3] = test system: Grb10 S501/S503 phosphorylation in wild type (WT) MEFs; assay: Immunoblot of Grb10 phosphorylation after insulin or serum stimulation; type: cell-based, mouse; conditions: serum-starved WT MEFs, preincubated two hours (rapamycin 20 nM, AZD6244 5 μM), insulin 100 nM or serum 10% 15 min
Protocol: as §1

[4] = test system: ERK in wild type (WT) MEFs; assay: Immunoblot of ERK activity after growth factor stimulation; type: cell-based, mouse; conditions: serum-starved WT MEFs, AZD6244 5 μM two hours, insulin or serum 15 min
Protocol: as §1

[5] = test system: phospho-mTOR S2481 in TSC2−/− cells; assay: Immunoblot of mTOR S2481 phosphorylation; type: cell-based, mouse; conditions: starved TSC2−/− cells; 20 nM rapamycin acute treatment; pp 242 two hours
[6] = test system: Grb10 protein in TSC2−/− cells; assay: Immunoblot of Grb10 protein level after long-term treatment; type: cell-based, mouse; conditions: TSC2−/− cells, endogenous Grb10
Source text: FIG. 3. mTOR-mediated Grb10 phosphorylation is important for Grb10 stability. (A) Grb10 interacts with raptor, but not rictor. HA-tagged Grb10 was co-transfected with Myc-raptor or Myc-rictor in HEK293T cells. Cells were lysed in lysis buffer A, and the lysates were subjected to immunoprecipitation using anti-HA antibody conjugated beads. Raptor and rictor were probed with an antibody against the Myc-tag. (B) Grb10 is phosphorylated by mTOR in vitro. […] Phosphorylation of Grb10 at S501/S503 was detected by using the phospho-specific antibody against these two sites. (C) Long-term rapamycin treatment leads to Grb10 degradation in TSC2−/− cells. Note that Grb10 protein expression levels inversely correlated with Akt activity. Grb10 is highly overexpressed in TSC2−/− cells. mRNA level was determined using quantitative RT-PCR based on three biological replicate experiments. (D) Knockdown of raptor in TSC2−/− cells decreased Grb10 protein level. Cells were starved overnight and the lysates were probed with the antibodies indicated. (E) Grb10 is highly overexpressed in TSC2−/− cells. (F) S501A/S503A mutant is unstable compared with the wild-type or the S501D/S503D mutant. The same amount of DNA was transfected into HEK293T cells. […] Endogenous Grb10 was detected using an antibody that preferentially recognizes mouse Grb10 whereas the Grb10 DD mutant (of human origin) was detected using an anti-HA antibody.
(§2) FIG. 9. Phosphorylation of Grb10 at S501/S503 regulates its stability. […] Preincubation of the antibody with the […] completely eliminated the immunoreactivity. (B) Further validation of the phospho-specific antibody raised against the Grb10 S501/S503 sites. Grb10 WT, S501A/S503A (AA) and S501D/S503D (DD) were transfected into HEK239T cells and were probed with the antibody. Note that this antibody detected wild type (WT) Grb10, but neither of the mutant proteins. (C) Treatment of TSC2−/− cells with various mTOR kinase inhibitors led to Grb10 degradation. […] (E) Grb10 is highly overexpressed in TSC1−/− cells compared with their wild-type counterparts. (F) rapamycin treatment of TSC2−/− cells stably expressing wild type (WT) Grb10 led to lower levels of both endogenous and exogenous Grb10.
In addition, long-term treatment with mTOR kinase inhibitors, including LY-294002, NVP-BEZ235, torin and pp 242 all led to reduced Grb10 protein expression (FIG. 9C). Similar results were obtained in TSC1−/− MEFs (FIG. 9D). In contrast, we found Grb10 was highly overexpressed in TSC2−/− and TSC1−/− MEFs compared with their wild-type counterparts (FIGS. 3E and 9E), correlating with elevated mTORC1 activity in these cells. […]

[7] = test system: wild-type MEFs; assay: Ku-0063794 screen: SILAC quantitative phosphoproteomics in rapamycin-inhibited, insulin-stimulated cells
[8] = test system: Akt phosphorylation; assay: Immunoblot of insulin-induced Akt phosphorylation; conditions: FIG. 5C
Protocol: For the Ku-screen, wild-type MEFs were grown in light and heavy SILAC media and starved overnight for serum. […] Both the light and heavy cell were subsequently stimulated with insulin for 15 minutes and samples were pooled and analyzed by quantitative mass spectrometry.
Samples were boiled for 5 min and subject to electrophoresis using the standard SDS-PAGE method. Proteins were then transferred to a nitrocellulose membrane (Whatman). The membranes were blocked with a TBST buffer (25 mM Tris-HCl, pH 7.5, 150 mM NaCl, 0.05% Tween 20) containing 3% nonfat dried milk, and probed overnight with primary antibodies at 4° C. and for 1 h at RT with peroxidase-conjugated secondary antibodies. Blots were developed using enhanced chemiluminescence, exposed on autoradiograph film and developed using standard methods.

[9] = test system: Grb10 protein in TSC1−/− cells; assay: Immunoblot of Grb10 protein level in TSC1−/− cells; type: cell-based, mouse
Protocol: as §2
In addition, long-term treatment with mTOR kinase inhibitors, including LY-294002, NVP-BEZ235, torin and pp 242 all led to reduced Grb10 protein expression (FIG. 9C). Similar results were obtained in TSC1−/− MEFs (FIG. 9D). In contrast, we found Grb10 was highly overexpressed in TSC2−/− and TSC1−/− MEFs compared with their wild-type counterparts (FIGS. 3E and 9E), correlating with elevated mTORC1 activity in these cells.

[10] = biological target: T1, Myc-tagged rictor (pRK5-Myc-Rictor) (UniProt Q6R327 1-1708); assay: co-immunoprecipitation with anti-HA beads from co-transfected HEK293T cells, anti-Myc blot
T1 construct: Co-overexpressed with HA-Grb10 in HEK293T cells; not shown: Myc tag
T1 sequence (Q6R327 whole entry): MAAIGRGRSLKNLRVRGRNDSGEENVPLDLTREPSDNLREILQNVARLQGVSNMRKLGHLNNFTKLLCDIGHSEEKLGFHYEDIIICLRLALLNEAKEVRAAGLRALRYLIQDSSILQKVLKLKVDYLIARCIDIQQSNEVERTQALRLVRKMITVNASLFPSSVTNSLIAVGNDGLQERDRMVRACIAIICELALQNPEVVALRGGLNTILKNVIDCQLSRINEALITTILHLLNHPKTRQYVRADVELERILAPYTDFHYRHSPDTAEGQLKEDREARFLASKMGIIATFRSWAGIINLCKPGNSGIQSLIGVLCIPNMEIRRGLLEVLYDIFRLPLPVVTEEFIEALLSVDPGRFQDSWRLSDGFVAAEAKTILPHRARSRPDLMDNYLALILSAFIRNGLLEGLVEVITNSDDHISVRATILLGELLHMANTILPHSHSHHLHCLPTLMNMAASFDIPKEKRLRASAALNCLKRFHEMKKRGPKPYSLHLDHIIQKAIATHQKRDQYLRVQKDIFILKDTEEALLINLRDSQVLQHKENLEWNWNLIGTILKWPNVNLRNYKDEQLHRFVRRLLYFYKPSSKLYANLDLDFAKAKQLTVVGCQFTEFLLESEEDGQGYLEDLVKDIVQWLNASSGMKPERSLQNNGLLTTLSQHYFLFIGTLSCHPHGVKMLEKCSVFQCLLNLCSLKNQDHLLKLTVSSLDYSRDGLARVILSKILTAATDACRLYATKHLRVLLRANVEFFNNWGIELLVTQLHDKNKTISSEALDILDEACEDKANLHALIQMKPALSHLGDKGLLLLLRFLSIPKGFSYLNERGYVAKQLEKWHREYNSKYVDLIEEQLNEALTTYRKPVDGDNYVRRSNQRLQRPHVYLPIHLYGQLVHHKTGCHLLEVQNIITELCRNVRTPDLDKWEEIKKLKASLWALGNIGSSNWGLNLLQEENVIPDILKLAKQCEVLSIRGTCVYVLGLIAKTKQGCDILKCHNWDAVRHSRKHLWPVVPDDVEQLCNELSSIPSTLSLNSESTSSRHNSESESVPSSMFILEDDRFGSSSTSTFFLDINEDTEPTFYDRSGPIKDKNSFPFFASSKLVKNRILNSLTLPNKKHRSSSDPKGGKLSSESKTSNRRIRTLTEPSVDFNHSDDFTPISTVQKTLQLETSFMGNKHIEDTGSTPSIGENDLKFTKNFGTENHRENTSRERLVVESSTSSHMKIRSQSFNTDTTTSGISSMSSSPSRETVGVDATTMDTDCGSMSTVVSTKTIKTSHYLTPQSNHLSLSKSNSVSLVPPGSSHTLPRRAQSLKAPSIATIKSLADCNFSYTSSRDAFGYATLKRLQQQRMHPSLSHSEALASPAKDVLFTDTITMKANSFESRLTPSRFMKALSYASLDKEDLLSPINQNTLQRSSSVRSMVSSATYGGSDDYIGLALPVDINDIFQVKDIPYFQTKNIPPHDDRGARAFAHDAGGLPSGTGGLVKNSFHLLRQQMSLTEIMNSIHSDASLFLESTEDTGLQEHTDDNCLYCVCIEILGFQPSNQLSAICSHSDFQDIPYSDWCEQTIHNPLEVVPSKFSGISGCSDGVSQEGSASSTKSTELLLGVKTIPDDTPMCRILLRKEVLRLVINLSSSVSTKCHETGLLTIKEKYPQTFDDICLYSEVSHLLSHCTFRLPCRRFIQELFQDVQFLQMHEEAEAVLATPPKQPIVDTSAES

[11] = downregulated phosphorylation, wt MEFs, 20 nM rapamycin + 2 μM Ku-0063794 2 h vs rapamycin alone, insulin 15 min

CN[C@@H]1C[C@H]2O[C@@](C)([C@@H]1OC)n1c3ccccc3c3c4c(c5c6ccccc6n2c5c31)C(=O)NC4 [staurosporine]
rpS6 phosphorylation (S6K activity) [1]: complete loss
Grb10 S501/S503 phosphorylation (immunoblot) [2]: No change

Cn1cnc2c(F)c(Nc3ccc(Br)cc3Cl)c(C(=O)NOCCO)cc21 [AZD6244]
insulin- or serum-induced Grb10 S501/S503 phosphorylation [3]: no effect
activities of ERK [4]: completely abolished

CC(C)n1nc(-c2cc3cc(O)ccc3[nH]2)c2c(N)ncnc21 [pp 242]
mTOR S2481 phosphorylation (immunoblot) [5]: completely ablated
Grb10 protein levels after long-term treatment [6]: reduced
Grb10 S501/S503 phosphorylation (immunoblot) [2]: completely abolished

COc1ccc(-c2ccc3c(N4CCOCC4)nc(N4C[C@@H](C)O[C@@H](C)C4)nc3n2)cc1CO [Ku-0063794]
4EBP T36/T45 phosphorylation (FIG. 6A) ([7]; Ku-0063794 screen): completely abolished
intensity of T70 singly phosphorylated 4EBP1 peptide ([7]; Ku-0063794 screen): did not change
rpS6 S235/236 phosphorylation (Class I site) ([7]; Ku-0063794 screen, rapamycin-inhibited background): not further decreased
Median (treated/ctrl) fold-change of phosphopeptide DRSSS*APNVHINTIEPVNIDDLIR, Braf S312 [7, 11]: 2.1 fold
Median (treated/ctrl) fold-change of phosphopeptide Eif4ebp1 T36, T45 [7, 11]: 7.2 fold
Median (treated/ctrl) fold-change of phosphopeptide Eif4ebp2 S65 [7, 11]: 6.8 fold
Median (treated/ctrl) fold-change of phosphopeptide LGS*FGSITR, Flnc S2234 [7, 11]: 2.4 fold
Median (treated/ctrl) fold-change of phosphopeptide LNT*SDFQK, Akt1s1 T247 [7, 11]: 31.3 fold
Median (treated/ctrl) fold-change of phosphopeptide TAS*GSS*VTSLEGTR, Ndrg1 S330, S333 [7, 11]: 4.1 fold
Median (treated/ctrl) fold-change of phosphopeptide TGS*ESSQTGASATSGR, Eif4b S422 [7, 11]: 2.2 fold
Median (treated/ctrl) fold-change of phosphopeptide TTS*FAESCKPVQQPSAFGSMK, Gsk3β S9 [7, 11]: ~2.2 fold
insulin-induced Akt phosphorylation [8]: inhibits
Grb10 S501/S503 phosphorylation (immunoblot) [2]: dose-dependent dephosphorylation

CCC(=O)N1CCN(c2ccc(-n3c(=O)ccc4cnc5ccc(-c6cnc7ccccc7c6)cc5c43)cc2C(F)(F)F)CC1 [torin]
Grb10 protein levels after long-term treatment [6]: reduced
Grb10 S501/S503 phosphorylation (immunoblot) [2]: completely abolished

Cn1c(=O)n(-c2ccc(C(C)(C)C#N)cc2)c2c3cc(-c4cnc5ccccc5c4)ccc3ncc21 [NVP-BEZ235]
Grb10 protein levels after long-term treatment [6]: reduced
level of Grb10 in TSC1−/− cells [9]: decreased level
Grb10 S501/S503 phosphorylation (immunoblot) [2]: completely abolished

B1: HA-tagged Grb10 (human growth factor receptor-bound protein 10, wild type) (other, UniProt Q13322-3 1-536, looked up)
chain: MNASLESLYSACSMQSDTVPLLQNGQHARSQPRASGPPRSIQPQVSPRQRVQRSQPVHILAVRRLQEEDQQFRTSSLPAIPNPFPELCGPGSPPVLTPGSLPPSQAAAKQDVKVFSEDGTSKVVEILADMTARDLCQLLVYKSHCVDDNSWTLVEHHPHLGLERCLEDHELVVQVESTMASESKFLFRKNYAKYEFFKNPMNFFPEQMVTWCQQSNGSQTQLLQNFLNSSSCPEIQGFLHVKELGKKSWKKLYVCLRRSGLYCSTKGTSKEPRHLQLLADLEDSNIFSLIAGRKQYNAPTDHGLCIKPNKVRNETKELRLLCAEDEQTRTCWMTAFRLLKYGMLLYQNYRIPQQRKALLSPFSTPVRSVSENSLVAMDFSGQTGRVIENPAEAQSAALEEGHAWRKRSTRMNILGSQSPLHPSTLSTVIHRTQHWFHGRISREESHRIIKQQGLVDGLFLLRDSQSNPKAFVLTLCHHQKIKNFQILPCEDDGQTFFSLDDGNTKFSDLIQLVDFYQLNKGVLPCKLKHHCIRVAL
notes: Expressed by transfection in HEK293T cells; The phospho-specific antibody recognises it in the form phosphorylated at S501/S503 (mouse isoform 1 numbering) in cells; also called WT-Grb10; Grb10 WT; not shown: HA tag from vector pKH3
binding result [10]: no binding
